Columns and labels:
[1] = molecular target: Receptor tyrosine-protein kinase erbB-4 (Homo sapiens) (UniProt Q15303); assay: Inhibition of human ERBB4/HER4 using poly[Glu:Tyr] (4:1) as substrate at 1 uM in presence of 32P-ATP by Hotspot assay relative to control; values are per cent of control
[2] = molecular target: T1, Interleukin-1 receptor-associated kinase 4 (Homo sapiens) (UniProt Q9NWZ3); assay: Inhibition of human IRAK4 using myelin basic protein as substrate at 1 uM in presence of 32P-ATP by Hotspot assay relative to control; values are per cent of control
T1 sequence (whole entry): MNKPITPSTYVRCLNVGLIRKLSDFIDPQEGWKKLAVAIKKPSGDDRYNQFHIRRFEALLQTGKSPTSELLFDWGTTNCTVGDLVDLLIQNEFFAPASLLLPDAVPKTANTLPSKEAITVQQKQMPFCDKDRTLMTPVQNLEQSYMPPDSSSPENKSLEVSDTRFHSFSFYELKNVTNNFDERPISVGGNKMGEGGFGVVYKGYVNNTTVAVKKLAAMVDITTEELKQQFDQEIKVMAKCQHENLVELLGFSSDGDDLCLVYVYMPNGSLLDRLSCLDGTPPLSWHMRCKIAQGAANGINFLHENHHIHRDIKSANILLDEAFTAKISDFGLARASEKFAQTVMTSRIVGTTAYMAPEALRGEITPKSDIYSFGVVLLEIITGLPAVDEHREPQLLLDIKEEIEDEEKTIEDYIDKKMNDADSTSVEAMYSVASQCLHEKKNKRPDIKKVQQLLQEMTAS

[3] = molecular target: Tyrosine-protein kinase Yes (Homo sapiens) (UniProt P07947); assay: Inhibition of human YES/YES1 using poly[Glu:Tyr] (4:1) as substrate at 1 uM in presence of 32P-ATP by Hotspot assay relative to control; values are per cent of control
Tyrosine-protein kinase Yes (Homo sapiens), sequence (P07947 2-543 limits assumed): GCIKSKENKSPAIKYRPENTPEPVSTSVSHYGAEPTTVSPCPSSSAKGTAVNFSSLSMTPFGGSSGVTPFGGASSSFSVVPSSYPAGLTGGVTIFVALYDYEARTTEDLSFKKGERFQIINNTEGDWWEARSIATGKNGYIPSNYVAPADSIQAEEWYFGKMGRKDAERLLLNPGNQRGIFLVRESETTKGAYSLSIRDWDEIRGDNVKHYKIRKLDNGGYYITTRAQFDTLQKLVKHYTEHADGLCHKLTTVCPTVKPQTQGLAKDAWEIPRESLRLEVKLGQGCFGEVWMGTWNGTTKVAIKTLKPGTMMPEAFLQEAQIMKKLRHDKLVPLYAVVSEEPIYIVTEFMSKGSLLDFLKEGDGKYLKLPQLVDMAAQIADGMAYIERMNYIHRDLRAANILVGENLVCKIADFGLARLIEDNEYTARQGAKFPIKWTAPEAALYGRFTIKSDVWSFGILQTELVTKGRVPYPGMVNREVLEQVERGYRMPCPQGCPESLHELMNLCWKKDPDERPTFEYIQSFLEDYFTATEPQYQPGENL

[4] = molecular target: Glycogen synthase kinase-3 alpha (Homo sapiens) (UniProt P49840); assay: Inhibition of human GSK3a using YRRAAVPPSPSLSRHSSPHQ(pS)EDEEE as substrate at 1 uM in presence of 32P-ATP by Hotspot assay relative to control; values are per cent of control
Glycogen synthase kinase-3 alpha (Homo sapiens), sequence (P49840 2-483 limits assumed): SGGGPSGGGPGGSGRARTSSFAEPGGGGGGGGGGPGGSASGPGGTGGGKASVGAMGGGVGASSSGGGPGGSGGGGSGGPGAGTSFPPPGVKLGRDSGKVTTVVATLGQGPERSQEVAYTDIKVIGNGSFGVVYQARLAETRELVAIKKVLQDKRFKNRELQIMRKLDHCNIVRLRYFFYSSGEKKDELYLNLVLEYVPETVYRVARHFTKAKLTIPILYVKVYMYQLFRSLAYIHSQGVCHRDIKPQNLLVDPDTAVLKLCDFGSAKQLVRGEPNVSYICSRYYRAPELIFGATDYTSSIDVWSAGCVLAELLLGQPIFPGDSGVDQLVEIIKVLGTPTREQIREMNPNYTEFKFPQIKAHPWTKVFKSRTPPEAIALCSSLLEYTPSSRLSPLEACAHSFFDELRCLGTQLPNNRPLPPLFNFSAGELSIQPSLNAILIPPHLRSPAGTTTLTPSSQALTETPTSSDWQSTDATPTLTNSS

[5] = molecular target: T2, Serine/threonine-protein kinase Sgk2 (Homo sapiens) (UniProt Q9HBY8); assay: Inhibition of human SGK2 using KGSGSGRPRTSSFAEG as substrate at 1 uM in presence of 32P-ATP by Hotspot assay relative to control; values are per cent of control
T2 sequence (whole entry): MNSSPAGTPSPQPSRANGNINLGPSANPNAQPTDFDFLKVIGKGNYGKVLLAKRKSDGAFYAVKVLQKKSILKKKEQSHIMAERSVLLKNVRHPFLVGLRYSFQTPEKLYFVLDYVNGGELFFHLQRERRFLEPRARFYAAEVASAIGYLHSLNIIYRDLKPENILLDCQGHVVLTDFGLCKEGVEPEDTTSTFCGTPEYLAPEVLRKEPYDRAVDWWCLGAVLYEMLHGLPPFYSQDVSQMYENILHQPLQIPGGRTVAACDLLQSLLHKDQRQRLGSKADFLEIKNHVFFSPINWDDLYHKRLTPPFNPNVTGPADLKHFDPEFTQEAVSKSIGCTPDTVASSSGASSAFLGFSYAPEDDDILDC

[6] = molecular target: Leucine-rich repeat serine/threonine-protein kinase 2 (Homo sapiens) (UniProt Q5S007); assay: Inhibition of human LRRK2 using RLGRDKYKTLRQIRQ as substrate at 1 uM in presence of 32P-ATP by Hotspot assay relative to control; values are per cent of control
[7] = molecular target: LIM domain kinase 1 (Homo sapiens) (UniProt P53667); assay: Inhibition of human LIMK1 using cofilin 1 as substrate at 1 uM in presence of 32P-ATP by Hotspot assay relative to control; values are per cent of control
LIM domain kinase 1 (Homo sapiens), sequence (P53667 whole entry, looked up, the tested form may be a part): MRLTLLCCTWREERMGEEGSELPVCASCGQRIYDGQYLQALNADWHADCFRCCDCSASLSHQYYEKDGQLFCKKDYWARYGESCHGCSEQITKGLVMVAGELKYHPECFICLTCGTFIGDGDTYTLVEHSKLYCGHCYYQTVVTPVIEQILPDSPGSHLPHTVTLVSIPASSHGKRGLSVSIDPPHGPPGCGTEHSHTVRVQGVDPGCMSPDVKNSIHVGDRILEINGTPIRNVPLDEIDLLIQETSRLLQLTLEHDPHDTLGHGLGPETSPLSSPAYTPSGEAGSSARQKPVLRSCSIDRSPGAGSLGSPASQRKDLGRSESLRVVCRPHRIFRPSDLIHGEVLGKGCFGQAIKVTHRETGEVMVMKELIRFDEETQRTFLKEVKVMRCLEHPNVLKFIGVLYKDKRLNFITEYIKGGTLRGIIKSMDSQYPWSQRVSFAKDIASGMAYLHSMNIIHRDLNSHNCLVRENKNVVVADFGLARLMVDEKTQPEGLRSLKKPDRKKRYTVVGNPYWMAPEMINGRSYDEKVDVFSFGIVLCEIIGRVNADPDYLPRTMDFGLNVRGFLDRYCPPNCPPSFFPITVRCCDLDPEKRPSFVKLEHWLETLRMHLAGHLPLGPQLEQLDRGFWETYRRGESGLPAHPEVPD

[8] = molecular target: Fibroblast growth factor receptor 3 (Homo sapiens) (UniProt P22607); assay: Inhibition of human FGFR3 using poly[Glu:Tyr] (4:1) as substrate at 1 uM in presence of 32P-ATP by Hotspot assay relative to control; values are per cent of control
Fibroblast growth factor receptor 3 (Homo sapiens), sequence (P22607 23-806 limits assumed): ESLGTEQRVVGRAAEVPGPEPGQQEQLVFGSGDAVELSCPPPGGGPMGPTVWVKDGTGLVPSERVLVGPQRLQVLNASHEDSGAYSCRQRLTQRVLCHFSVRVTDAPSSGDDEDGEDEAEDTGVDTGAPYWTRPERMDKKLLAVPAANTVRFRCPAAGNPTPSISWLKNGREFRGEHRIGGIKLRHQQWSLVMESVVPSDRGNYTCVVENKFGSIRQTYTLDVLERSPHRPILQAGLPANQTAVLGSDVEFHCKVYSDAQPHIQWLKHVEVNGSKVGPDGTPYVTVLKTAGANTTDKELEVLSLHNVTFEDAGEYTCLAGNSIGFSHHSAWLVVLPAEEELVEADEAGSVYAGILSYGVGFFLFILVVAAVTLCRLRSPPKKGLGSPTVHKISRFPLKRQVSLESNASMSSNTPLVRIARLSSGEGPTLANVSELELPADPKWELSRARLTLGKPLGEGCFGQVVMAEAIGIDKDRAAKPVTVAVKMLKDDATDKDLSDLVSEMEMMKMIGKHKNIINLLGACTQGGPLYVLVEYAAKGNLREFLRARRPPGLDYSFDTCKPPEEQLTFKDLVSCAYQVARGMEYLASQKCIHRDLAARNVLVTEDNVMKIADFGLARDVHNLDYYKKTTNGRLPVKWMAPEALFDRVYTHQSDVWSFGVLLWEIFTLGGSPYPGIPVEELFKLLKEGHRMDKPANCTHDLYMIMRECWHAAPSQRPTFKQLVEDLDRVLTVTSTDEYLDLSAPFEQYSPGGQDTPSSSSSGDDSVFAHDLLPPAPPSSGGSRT

[9] = molecular target: T3, cGMP-dependent protein kinase 1 (Homo sapiens) (UniProt Q13976); assay: Inhibition of human PKG1b using LRRASLG as substrate at 1 uM in presence of 32P-ATP by Hotspot assay relative to control; values are per cent of control
T3 sequence (whole entry): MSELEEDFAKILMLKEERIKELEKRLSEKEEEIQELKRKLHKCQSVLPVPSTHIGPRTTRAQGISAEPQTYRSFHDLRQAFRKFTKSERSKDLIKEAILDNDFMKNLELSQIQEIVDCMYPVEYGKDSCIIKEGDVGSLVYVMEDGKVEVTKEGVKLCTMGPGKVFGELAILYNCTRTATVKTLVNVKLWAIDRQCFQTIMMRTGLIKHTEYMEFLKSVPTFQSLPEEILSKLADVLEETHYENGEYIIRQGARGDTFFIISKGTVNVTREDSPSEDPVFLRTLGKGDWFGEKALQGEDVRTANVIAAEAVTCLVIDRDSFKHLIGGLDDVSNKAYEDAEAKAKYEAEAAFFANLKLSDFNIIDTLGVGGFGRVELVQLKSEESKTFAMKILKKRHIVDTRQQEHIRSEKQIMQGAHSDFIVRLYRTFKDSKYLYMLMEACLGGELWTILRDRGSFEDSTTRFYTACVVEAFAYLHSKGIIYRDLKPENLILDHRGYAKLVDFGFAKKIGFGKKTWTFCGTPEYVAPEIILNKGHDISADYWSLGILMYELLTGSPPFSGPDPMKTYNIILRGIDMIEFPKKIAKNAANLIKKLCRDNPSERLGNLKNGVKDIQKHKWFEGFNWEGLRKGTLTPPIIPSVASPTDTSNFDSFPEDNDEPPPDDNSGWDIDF

MEF = assay: Induction of apoptosis in RIP3-/- MEF cells transfected with human RIP3 incubated for 18 hrs by Cell Titer-Glo luminescent cell viability assay; type: toxicity, cell-based; details: mouse

Receptor tyrosine-protein kinase erbB-4 (Homo sapiens), sequence (Q15303 whole entry): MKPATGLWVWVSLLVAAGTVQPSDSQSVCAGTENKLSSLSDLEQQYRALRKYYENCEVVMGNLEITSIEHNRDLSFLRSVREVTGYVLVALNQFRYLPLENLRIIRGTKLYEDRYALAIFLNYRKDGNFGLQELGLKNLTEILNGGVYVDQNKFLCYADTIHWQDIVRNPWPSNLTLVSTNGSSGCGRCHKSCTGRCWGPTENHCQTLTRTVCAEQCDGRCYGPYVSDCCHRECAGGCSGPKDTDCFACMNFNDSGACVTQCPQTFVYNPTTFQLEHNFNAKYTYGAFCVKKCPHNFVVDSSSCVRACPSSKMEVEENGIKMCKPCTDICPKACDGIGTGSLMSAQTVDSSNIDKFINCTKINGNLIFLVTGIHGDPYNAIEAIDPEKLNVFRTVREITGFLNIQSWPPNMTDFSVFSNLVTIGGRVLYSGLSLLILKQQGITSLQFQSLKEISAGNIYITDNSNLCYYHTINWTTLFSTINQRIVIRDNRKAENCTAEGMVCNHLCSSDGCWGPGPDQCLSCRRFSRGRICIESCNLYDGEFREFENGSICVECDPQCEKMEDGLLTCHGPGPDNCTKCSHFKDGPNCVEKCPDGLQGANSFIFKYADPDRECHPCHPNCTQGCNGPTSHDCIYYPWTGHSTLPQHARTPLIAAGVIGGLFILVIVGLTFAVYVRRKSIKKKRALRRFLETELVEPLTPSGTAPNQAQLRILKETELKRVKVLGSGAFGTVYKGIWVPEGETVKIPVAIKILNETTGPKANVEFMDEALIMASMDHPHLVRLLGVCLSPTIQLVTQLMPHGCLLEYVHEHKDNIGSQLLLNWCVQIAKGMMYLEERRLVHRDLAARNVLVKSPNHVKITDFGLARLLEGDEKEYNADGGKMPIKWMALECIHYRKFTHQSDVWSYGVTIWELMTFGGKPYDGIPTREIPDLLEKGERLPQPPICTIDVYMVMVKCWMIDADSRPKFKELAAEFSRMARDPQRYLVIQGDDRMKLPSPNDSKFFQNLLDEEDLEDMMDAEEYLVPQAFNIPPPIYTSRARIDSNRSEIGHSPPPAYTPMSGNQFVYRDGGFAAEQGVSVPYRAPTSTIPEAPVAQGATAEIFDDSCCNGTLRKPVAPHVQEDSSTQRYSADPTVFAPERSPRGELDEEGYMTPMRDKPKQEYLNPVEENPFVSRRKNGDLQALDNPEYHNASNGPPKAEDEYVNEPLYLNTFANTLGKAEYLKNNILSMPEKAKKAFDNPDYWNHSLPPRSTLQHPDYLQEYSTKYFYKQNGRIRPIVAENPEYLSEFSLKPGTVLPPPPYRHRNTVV

Compound	residual activity [1]	residual activity [2]	residual activity [3]	residual activity [4]	residual activity [5]	residual activity [6]	residual activity [7]	residual activity [8]	residual activity [9]	Activity (MEF)
Cc1cc(-c2cnc(N)c3c(-c4ccc5scnc5c4)csc23)n(C)n1	98.4%	99.7%	17%	99.8%	87.7%	88.5%	65.6%	65%	85%	Toxic
CNC(=O)c1ccc2c(c1)ncn2-c1ccc(CC(=O)OC(C)(C)C)cc1	93.8%	102%	39.6%	99.8%	102%	94.5%	72.9%	65.3%	96.1%	Toxic
CC(C)S(=O)(=O)c1ccc2nccc(Nc3ccc4scnc4c3)c2c1	89.3%	97.5%	20.1%	92.4%	99.9%	90.5%	93%	94.3%	97.5%	Toxic

Reference: ChEMBL document CHEMBL5649166, “RIP3 induces apoptosis independent of pronecrotic kinase activity” (Mol Cell, 2014)
